One experiment has as its system intracranial U87 tumors. The experiment is described as follows: Survival study, intracranial U87 tumors. Format: in vivo, mice. The note with it: NPs by CED 6 days post inoculation, TMZ 25 mg/kg i.p. As to the method:
(§1) Animals were anaesthetized using a mixture of ketamine (100 mg/kg) and xylazine (10 mg/kg) via intraperitoneal injection. Anesthetized animals were then placed in a stereotaxic frame and sterilized the scalp with betadine and alcohol. To expose the coronal and sagittal sutures, a midline scalp incision was created, and a burr hole was drilled 2 mm lateral to the sagittal suture and 0.5 mm anterior to the bregma. U87 or G22 cells ([…]) in 3 μL PBS were injected into the right stratum over 3 min using a 10-μL Hamilton syringe. The animal was left 5 min for tissue equilibration before and after infusion. When infusion was finished, the burr hole was filled with bone wax and skin was stapled and cleaned.
(§2) CED in tumor bearing mice was similar to tumor inoculation by reopening the burr hole used for tumor inoculation. A micro-infusion pump (World Precision Instruments) was used to infuse 6 μL of NPs at a rate of […].
(§3) Tumors grew for 6 days before the administration of treatment. Intracranial CED of sγPNA/BNP was conducted following the same surgical procedure as described. TMZ (25 mg/kg) in PBS was administered intraperitoneally on day 7. Animals were monitored daily and weighed every week. […] Total RNA in the tumor and contralateral hemisphere was isolated using mirVana miRNA Isolation Kit and analyzed by real-time PCR detection system as previously described.

For experiment [1], the system named is patient (G22) derived intracranial gliomas. The experiment is described as follows: Survival study, patient-derived G22 orthotopic tumors. The class given is in vivo, mice. Conditions: G22 orthotopic model; single dose TMZ 25 mg/kg. As to the method:
as §1, §2, §3

The next experiment concerns U87 cells. The experiment is described as follows: Cell viability assay, U87. The class given is cell-based, human. Conditions: BNP 0.5 mg/mL, TMZ 20 μM. How it is done:
Cells were seeded in 96-well plates at a density of 5,000 cells/well and treated with increasing concentrations of NP formulations. Cell viability was evaluated by CellTiter-Glo Luminescent Cell Viability Assay (Promega) after 48 h, 72 h treatment. Luminescence was measured using a plate reader (SpectraMax M5) and relative cell viability was normalized to the viability of untreated cells. For TMZ involved combination studies, cells were seeded in 96-well plates at a density of 1,000 cells/well and exposed to sγPNA/NNP and sγPNA/BNP. After 72 h of treatments, NPs were removed and TMZ was added to the wells. Cell viability was measured as described above after 6 days of treatment.

As usually defined, the viability is a per cent measure of how many cells are alive, often set against a control. As to `Cn1nnc2c(C(N)=O)ncn2c1=O` [TMZ, Temozolomide], the Median survival in the experiment with intracranial U87 tumors turned out to be 81 days; in experiment [1], 79 days. The “Cell viability/100” value in the experiment on U87 cells is 0.66. Further, the viability at 20 µM in the experiment on U87 cells (Homo sapiens, U-87 MG, read-out: Cell viability (% of control)) stood at 66%.
